Results reported in BigSolDB 2.1.

CCOc1ccc(C2NC(=O)NC=C2C(=O)c2cc(OC)c(OC)c(OC)c2)cc1 (stereo not given)
solubility (mole fraction)
Settings	298.15 K	303.15 K	308.15 K	313.15 K	318.15 K
in DMSO	0.00547	0.0065	0.00754	0.00879	0.00996
in ethanol	0.000294	0.000402	0.000516	0.000654	0.000802
in ethyl acetate	0.00143	0.00174	0.00222	0.00286	0.00345
in ethylene glycol	0.000397	0.000543	0.000697	0.000866	0.00107
in isopropanol	0.000469	0.000619	0.000772	0.000958	0.00113
in methanol	0.000252	0.000328	0.000407	0.00049	0.000577
in n-butanol	0.000672	0.000859	0.00105	0.00125	0.00146
in propylene glycol	0.000504	0.000682	0.00087	0.00107	0.00133
in sec-butanol	0.00067	0.000855	0.00104	0.00124	0.00145
in transcutol	0.00301	0.00367	0.00441	0.00519	0.00624
in water	7.87e-06	1.09e-05	1.51e-05	2.02e-05	2.54e-05

Settings	solubility (mole fraction)
in PEG-400, 298.15 K	0.00521
in PEG-400, 303.15 K	0.00675
in PEG-400, 308.15 K	0.00831
in PEG-400, 313.15 K	0.0103
in PEG-400, 318.15 K	0.0121
